Laboratory results taken from patent US20240156754A1, “POWDER COMPOSITION FOR DISINFECTION OF THE TEATS OF DAIRY ANIMALS” (KLARECO SRL, priority 2022, published 2024).
Where “and” joins values, the source holds several entries; their conditions need not be identical. Equal entries are not always repeated.

Test: Accelerated stability test (30° C., 65% RH, 18 weeks)
Assay type: physicochemical
Description: Accelerated stability test has been carried what to assess the quality of a test item prepared as the one in Example 7 during time, under the influence of temperature and humidity.
The test was conducted at 30° C., at 65% of relative humidity (RH), for 18 weeks.
[…], assessing: the appearance of each container (the one containing chloramine T and the one containing the excipients), appearance of the products therein, the weight loss of the products and the content of chloramine T.
Appearance of the test item and of the packaging was assessed under the lab light. Weight loss was assessed weighing each sample at T0 (WT0) and at the final time point (WTx) and compared with their initial value (%) according to the following formula:
Weight loss from initial %=[(WT0−WTx)*100]/(WT0)
The content of chloramine T was assessed as described in Example 7.

[1] = T8 w, single determination, 30° C./65% RH
[2] = T18 w, single determination, 30° C./65% RH

Cc1ccc(S(=O)(=O)[N-]Cl)cc1.[Na+] [Chloramine T, chloramine T]
Available Chlorine, average (T0, average): 24.53 % w/w | CHLORAMINE T anhydrous, average (T0, average): 97.46 % w/w | CHLORAMINE T tri-hydrated, average (T0, average): 78.76 % w/w | CHLORAMINE T anhydrous (T0, single determination): 97.61 % w/w and 97.31 % w/w | CHLORAMINE T tri-hydrated (T0, single determination): 78.88 % w/w and 78.64 % w/w | Available Chlorine (T0, single determination, chloramine T container of kit): 24.57 % w/w and 24.49 % w/w | Available Chlorine, average (T8 w, average, 30° C./65% RH): 0.18 % w/w | CHLORAMINE T anhydrous, average (T8 w, average, 30° C./65% RH): 0.73 % w/w | CHLORAMINE T tri-hydrated, average (T8 w, average, 30° C./65% RH): 0.59 % w/w | Available Chlorine [1]: 0.18 % w/w | CHLORAMINE T anhydrous [1]: 0.73 % w/w | CHLORAMINE T tri-hydrated [1]: 0.59 % w/w | Tx/T0 %, Available Chlorine (T18 w versus T0, 30° C./65% RH): 100.4% | Tx/T0 %, CHLORAMINE T anhydrous (T18 w versus T0, 30° C./65% RH): 100.4% | Tx/T0 %, CHLORAMINE T tri-hydrated (T18 w versus T0, 30° C./65% RH): 100.4% | Available Chlorine, average (T18 w, average, 30° C./65% RH): 24.62 % w/w | CHLORAMINE T anhydrous, average (T18 w, average, 30° C./65% RH): 78.06 % w/w | CHLORAMINE T tri-hydrated, average (T18 w, average, 30° C./65% RH): 97.83 % w/w | Available Chlorine [2]: 24.59 % w/w and 24.86 % w/w | CHLORAMINE T anhydrous [2]: 78.94 % w/w and 79.18 % w/w | CHLORAMINE T tri-hydrated [2]: 97.68 % w/w and 97.99 % w/w | content of active chloramine T compared to T0 (after 18 weeks at 30° C./65% RH): 100.4% | variations in the appearance and weight (after 18 weeks at 30° C./65% RH, envelopes): no significant variations | appearance of the product versus T0 (after 18 weeks at 30° C./65% RH, sealed container): did not present variations from T0
